Laboratory results as given in US5576187A (priority 1994, dated 1996).

Test system: anti-chlorpyrifos monoclonal antibody
Assay type: binding, mouse

In the case of `Cn1c(Cl)c(Cl)cc(Cl)c1=O` [N-methyl-3,5,6-trichloro-2-pyridinone], the “relative reactivity: concentration equivalent to 1 ppB of chlorpyrifos in the immunoassay” value is reported as 75 ppm.

With `CCOP(=O)(Cc1ccc(C)cc1)OCC` [diethyl 4-methylbenzylphosphonate] the “relative reactivity: concentration equivalent to 1 ppB of chlorpyrifos in the immunoassay” value was 50 ppm.
